In test [1] the test system is Staphylococcus epidermidis (ATCC 35984, also known as RP62A or MRSE). As to the kind of experiment: MIC determination on S. epidermidis (EUCAST, OD600 after overnight growth in MHB). It counts as cell-based. The protocol:
The Minimal Inhibitory Concentration (MIC) of molecules 2329, 2348, 2412, 2452 and 2461 was determined on Staphylococcus epidermidis (ATCC 35984, also known as RP62A) according to EUCAST (European Committee on Antimicrobial Susceptibility Testing) recommendations.
Briefly, a single colony grown on a Tryptic Soy Agar (TSA) plate was resuspended and cultured in Tryptic Soy Broth (TSB) overnight (O/N) in aerobic conditions (37° C. with 220 rpm shaking), next day a 1:50 inoculum in Mueller-Hinton broth (MHB) was incubated in aerobic conditions for 3 hr and an inoculum of 1:100 dilution, corresponding to 3×10^5 CFU/ml, was incubated in presence or absence of different concentrations of the molecules in 1% DMSO (vehicle). After O/N growth the OD of each culture was measured at 600 nm in a spectrophotometer (OD600). The MIC represents the concentration at which there is no visible growth of bacteria, i.e. ΔOD at 600 nm equal to zero (blank is the medium alone).
The Minimal Inhibitory Concentration (MIC) of pyrazolopyrimidine molecules 2539, 2544, 2666,2676, 2693, 2783, 2784 and 2782 and of purine molecules 2498, 2511, 2525, 2527, 2833, and 2840 was determined on S. epidermidis (ATCC 35984, also known as RP62A or MRSE) according to EUCAST (European Committee on Antimicrobial Susceptibility Testing) recommendations.
Briefly, a single colony grown on an agar plate was resuspended and cultured in Triptic Soy Broth (TSB) medium overnight (O/N) in aerobic conditions (37° C. with 220 rpm shaking), next day a 1:50 inoculum in Mueller-Hinton broth (MHB) was incubated in aerobic conditions for 3 hr (OD=0.08-0.1) and an inoculum of 1:300 dilution, corresponding to 3×10^5 CFU/ml, was incubated in presence or absence of different concentrations of each of the molecules in 1% DMSO (vehicle). After O/N growth the OD of each culture was measured at 600 nm (600) in a spectrophotometer (Victor 3-Perkin Elmer). The MIC represents the concentration at which there is no visible growth of bacteria, i.e. ΔOD at 600 nm equal to zero (where ΔOD is the difference between the OD with the molecule and the OD of the blank, the medium alone).
(§1) Molecule 36z has been tested for its potential antibacterial activity by determining its minimal inhibitory concentration (MIC) according to protocols recommended by EUCAST to assess the efficacy of antibiotics against bacterial strains. In brief MIC in MRSA (ATCC BAA-1556) or in Xen29 (Perkin Elmer-ATCC 12600) for 36z (molecule 25 in WO2009/034386) was determined by culturing a single colony of MRSA or Xen29 in brain heart infusion (BHI) broth overnight (O/N) in aerobic conditions (37° C. with 220 rpm shaking), while MIC for MRSE (ATCC 35984) was determined by culturing MRSE in TSB O/N. Next day a 1:100 inoculum in Mueller-Hinton broth (MHB) is incubated in aerobic conditions for 3 hr (OD=0.08-0.1) and an inoculum of 1:300 dilution, corresponding to 3×10^5 CFU/ml, is incubated in presence or absence of different concentrations of the tested molecules in 1% DMSO. After O/N growth the OD of each culture was measured at 600 nm (OD600) in a spectrophotometer (Victor 3-Perkin Elmer). The MIC represents the concentration at which there is no visible growth of bacteria, i.e. ΔOD at 600 nm equal to zero (blank is the medium alone). No antibacterial activity was found against MRSA (ATCC BAA-1556), Xen29 (Perkin Elmer-ATCC 12600 or MRSE (ATCC 35984) strains when the molecule was used at concentrations up to 200 μM.

Test [2] has as its system S. aureus Xen29 (ATCC 12600). As to the kind of experiment: MIC determination on bioluminescent S. aureus Xen29. The class given is cell-based, Staphylococcus aureus. To be noted: for antibacterial activity / inhibition of Xen29 growth (in words): MHB medium; for MIC: Staphylococcus aureus. The protocol:
(§2) Further experiments are conducted using different strains of S. aureus, as clinically relevant Gram-positive bacterial strains: S. aureus ATCC 25904, methicillin-resistant S. aureus (MRSA) ATCC BAA-1556, Glycopeptide intermediate-resistant (GISA) S. aureus Mu-50 (ATCC 700695) in order to determine the Minimal Inhibitory Concentration (MIC) which is the minimal concentration required to prevent bacterial growth. The bioluminescent strain S. aureus Xen29 (ATCC 12600) was also used. This strain is derived from the parental strain S. aureus ATCC 12600, a pleural fluid isolate, which is also designated as NCTC8532.
(§3) A single colony selected from the different strains of S. aureus is resuspended and cultured in brain heart infusion (BHI) broth overnight (O/N) in aerobic conditions (37° C. with 220 rpm shaking), next day a 1:100 inoculum in Mueller-Hinton broth (MHB) is incubated in aerobic conditions for 3 hr (=OD0.08-0.1) and an inoculum of 1:300 dilution, corresponding to 3×10^5 CFU/ml, is incubated in presence or absence of different concentrations of the tested molecules in 1% DMSO. After O/N growth the OD of each culture was measured at 600 nm (OD600) in a spectrophotometer (Victor 3-Perkin Elmer). The MIC represents the concentration at which there is no visible growth of bacteria, i.e. ΔOD at 600 nm equal to zero (blank is the medium alone). […] The MIC of molecule 2329 against Glycopeptide intermediate-resistant (GISA) S. aureus Mu-50 (ATCC 700695) is in between 25 and 30 μM, while it is above 50 μM for molecules 2348, 2412, and 2452.
(§4) Further experiments are conducted using different strains of S. aureus, as clinically relevant Gram-positive bacterial strains: methicillin-resistant S. aureus (MRSA) ATCC BAA-1556 and S. aureus Xen29 (Perkin Elmer ATCC 12600).
(§5) To determine the MIC of the above mentioned molecules in MRSA or in Xen29, a single colony of MRSA or Xen29 is resuspended and cultured in brain heart infusion (BHI) broth overnight (O/N) in aerobic conditions (37° C. with 220 rpm shaking), next day a 1:100 inoculum in Mueller-Hinton broth (MHB) is incubated in aerobic conditions for 3 hr (OD=0.08-0.1) and an inoculum of 1:300 dilution, corresponding to 3×10^5 CFU/ml, is incubated in presence or absence of different concentrations of the tested molecules in 1% DMSO. After O/N growth the OD of each culture was measured at 600 nm (OD600) in a spectrophotometer (Victor 3-Perkin Elmer). The MIC represents the concentration at which there is no visible growth of bacteria, i.e. ΔOD at 600 nm equal to zero (blank is the medium alone).
as §1

For test [3], the system named is methicillin-resistant S. aureus (MRSA) ATCC BAA-1556. As to the kind of experiment: MIC determination on methicillin-resistant S. aureus. It counts as cell-based, Staphylococcus aureus. The settings on record: for antibacterial activity against MRSA (in words): MHB medium; for MIC: Staphylococcus aureus. How it is done:
as §2, §3, §4, §5, §1

The mark [4] stands for this setting: Staphylococcus epidermidis, MHB medium, tested up to 100 μM, read-out: MIC MRSE.
Setting [5] is: MHB medium, tested up to 100 μM, hydrochloride, read-out: MIC MRSE.
[6] abbreviates: Staphylococcus epidermidis, read-out: MIC MRSE.

Converted amounts (≈) assume the structure as drawn. Read-outs that look alike come from different tables or passages of the source.

With `CCSc1nc(N[C@@H]2C[C@H]2c2ccc(F)c(F)c2)c2ncn(C)c2n1` [Molecule 2525, N-((1R,2S)-2-(3,4-difluorophenyl)cyclopropyl)-2-(ethylthio)-9-methyl-9H-purin-6-amine], the “antibacterial activity / inhibition of MRSE growth (in words)” value in test [1] (MHB medium) was “able to inhibit MRSE growth”. Moreover, the MIC was 40 µM (≈ 14.5 µg/mL) in test [1] (setting [4]); 30 µM (≈ 10.8 µg/mL) in test [2] (ATCC12600, read-out: MIC Xen29); 25 µM (≈ 9.04 µg/mL) in test [3] (read-out: MIC MRSA). The “antibacterial activity / inhibition of Xen29 growth (in words)” value in test [2] is reported as “able to inhibit”. In test [3], the “antibacterial activity against MRSA (in words)” value is recorded as “active”.
For the compound `CCCCSc1nc(N[C@@H]2C[C@H]2c2ccc(F)c(F)c2)c2ncn(CC)c2n1` [Molecule 2840, 2-(butylthio)-N-((1R,2S)-2-(3,4-difluorophenyl)cyclopropyl)-9-ethyl-9H-purin-6-amine], the MIC in test [1] (MHB medium, tested up to 100 μM, read-out: MIC MRSE) was more than 100 µM; in test [1] (setting [4]), more than 100 µM; in test [3] (read-out: MIC MRSA), 50 µM (≈ 20.2 µg/mL). The “antibacterial activity against MRSA (in words)” value in test [3] was “active”.
With `CSc1nc(N[C@@H]2C[C@H]2c2ccc(F)c(F)c2)c2cnn(C)c2n1` [Molecule 2539, N-((1R,2S)-2-(3,4-difluorophenyl)cyclopropyl)-1-methyl-6-(methylthio)-1H-pyrazolo[3,4-d]pyrimidin-4-amine], the “antibacterial activity / inhibition of MRSE growth (in words)” value in test [1] (MHB medium) is on record as “able to inhibit MRSE growth”. In addition, the MIC in test [1] (setting [4]) was found to be 50 µM (≈ 17.4 µg/mL); in test [2] (ATCC12600, read-out: MIC Xen29), 30 µM (≈ 10.4 µg/mL); in test [3] (read-out: MIC MRSA) it was 25 µM (≈ 8.68 µg/mL). For the same compound, the “antibacterial activity / inhibition of Xen29 growth (in words)” value in test [2] is given as “able to inhibit”. Also, the “antibacterial activity against MRSA (in words)” value in test [3] was “active”.
Consider `CCCSc1nc(N[C@@H]2C[C@H]2c2ccc(F)c(F)c2)c2cnn(CC)c2n1.Cl` [Molecule 2784, N-((1R,2S)-2-(3,4-difluorophenyl)cyclopropyl)-6-(propylthio)-1-ethyl-1H-pyrazolo[3,4-d]pyrimidin-4-amine hydrochloride], for which the MIC in test [1] (setting [5]) was more than 100 µM; in test [1] (setting [6]) it was more than 100 µM; in test [3] (read-out: MIC MRSA), 50 µM. The “antibacterial activity against MRSA (in words)” value in test [3] was “active”.
For `CCCCOc1nc(NC2CC2)c2ncn(Cc3c(F)ccc(C)c3F)c2n1` [38z″, 2-Butoxy-N-cyclopropyl-9-(2,6-difluoro-3-methylbenzyl)-9H-purin-6-amine, reference compound], the MIC was more than 200 µM in test [1] (Staphylococcus epidermidis, read-out: MIC MRSE (comparison molecules of WO2009/034386)); more than 200 µM in test [2] (ATCC12600, read-out: MIC Xen29 (comparison molecules of WO2009/034386)); more than 200 µM in test [3] (read-out: MIC MRSA (comparison molecules of WO2009/034386)).
In the case of `CSc1nc(N[C@@H]2C[C@H]2c2ccc(F)c(F)c2)c2ncn(C)c2n1` [Molecule 2498, N-((1R,2S)-2-(3,4-difluorophenyl)cyclopropyl)-9-methyl-2-(methylthio)-9H-purin-6-amine], the “antibacterial activity / inhibition of MRSE growth (in words)” value in test [1] (MHB medium) is recorded as “able to inhibit MRSE growth”. The MIC in test [1] (setting [4]) was 60 µM (≈ 20.8 µg/mL); in test [2] (ATCC12600, read-out: MIC Xen29), 30 µM (≈ 10.4 µg/mL); in test [3] (read-out: MIC MRSA), 30 µM (≈ 10.4 µg/mL). Moreover, in test [2], the “antibacterial activity / inhibition of Xen29 growth (in words)” value was “able to inhibit”. Besides, the “antibacterial activity against MRSA (in words)” value in test [3] is listed as “active”.
As to `CCn1ncc2c(N[C@@H]3C[C@H]3c3ccc(F)c(F)c3)nc(SC)nc21` [Molecule 2544, N-((1R,2S)-2-(3,4-difluorophenyl)cyclopropyl)-1-ethyl-6-(methylthio)-1H-pyrazolo[3,4-d]pyrimidin-4-amine], the “antibacterial activity / inhibition of MRSE growth (in words)” value in test [1] (MHB medium) was “able to inhibit MRSE growth”. Moreover, the MIC in test [1] (setting [4]) turned out to be 80 µM (≈ 28.9 µg/mL); in test [2] (ATCC12600, read-out: MIC Xen29), 50 µM (≈ 18.1 µg/mL); in test [3] (read-out: MIC MRSA), 50 µM (≈ 18.1 µg/mL). The “antibacterial activity / inhibition of Xen29 growth (in words)” value in test [2] is “able to inhibit”. Further, the “antibacterial activity against MRSA (in words)” value in test [3] is on record as “active”.
Take `CCSc1nc(N[C@@H]2C[C@H]2c2ccc(F)c(F)c2)c2cnn(CC)c2n1.Cl` [Molecule 2783, N-((1R,2S)-2-(3,4-difluorophenyl)cyclopropyl)-6-(ethylthio)-1-ethyl-1H-pyrazolo[3,4-d]pyrimidin-4-amine hydrochloride]: the MIC in test [1] (setting [5]) was more than 100 µM; in test [1] (setting [6]), more than 100 µM; in test [3] (read-out: MIC MRSA), 25 µM. Further, the “antibacterial activity against MRSA (in words)” value in test [3] was “active”.
`CSc1nc(N[C@@H]2C[C@H]2c2ccc(F)c(F)c2)c2cnn(C(C)C)c2n1.Cl` [Molecule 2676, N-((1R,2S)-2-(3,4-difluorophenyl)cyclopropyl)-1-isopropyl-6-(methylthio)-1H-pyrazolo[3,4-d]pyrimidin-4-amine hydrochloride]: the “antibacterial activity / inhibition of MRSE growth (in words)” value in test [1] (MHB medium) is given as “able to inhibit MRSE growth”. The MIC in test [1] (setting [6]) was 50 µM; in test [2] (ATCC12600, read-out: MIC Xen29) it was more than 100 µM; in test [3] (read-out: MIC MRSA), 20 µM. In addition, the “antibacterial activity against MRSA (in words)” value in test [3] is recorded as “active”.
Turning to `CCCSc1nc(N[C@@H]2C[C@H]2c2ccc(F)c(F)c2)c2cnn(C)c2n1.Cl` [Molecule 2782, N-((1R,2S)-2-(3,4-difluorophenyl)cyclopropyl)-6-(propylthio)-1-methyl-1H-pyrazolo[3,4-d]pyrimidin-4-amine hydrochloride], the MIC in test [1] (setting [5]) is more than 100 µM; in test [1] (setting [6]) it was more than 100 µM; in test [3] (read-out: MIC MRSA) it was 25 µM. In addition, the “antibacterial activity against MRSA (in words)” value in test [3] is reported as “active”.

Values taken from US11434241B2, “Pyrimidine derivatives for prevention and treatment of bacterial infections” (UNIVERSITE DE LIEGE, priority 2018, dated 2022).
